Assay results published in patent publication US7842690B2, “Cyclic hydroxylamine as psychoactive compounds” (BTG International Limited, priority 2003, dated 2010).
Counter-ions that a name gives are not always drawn.

Columns and labels:
Type in all cases: in vivo
[1] = tested on: Male rats of the Wistar strain; assay: Despair test (forced swim); settings: 50 mg/kg IP, injections 24, 5 and 1 hour prior to test, 5-min test, mean ± S.E.M.
[2] = tested on: Male rats of the Wistar strain; assay: Reserpine-induced changes in open field behaviour; settings: reserpine 0.1 mg/kg SC daily for 14 days, acute 50 mg/kg IP 1 h prior to open field test, 5-min test, mean ± S.E.M.
Method: Rats treated with the compound of Example 1 were compared to either rats treated with the classical antidepressant, clomipramine or controls in the despair test (forced swim). The same groups were also tested for the reserpine-induced changes in open field behaviour.
Male rats of the Wistar strain (purchased from Charles River, Italy) weighing 220-240 g were used throughout all experiments. For at least 1 week prior to the experiment, the rats were housed four to a cage at a constant temperature of 21° C., and under a 12-h light/dark cycle (lights on between 08:00 and 20:00), with food and water available ad libitum.
An acute IP injection of clomipramine hydrochloride (50 mg/kg) or of the compound of Example 1 (0.2 and 0.5 mg/kg) or physiological saline was made in animals subjected to the reserpine-induced changes in the open field test (the injection was made together with the last reserpine administration, e.g. 1 h prior to the open field test).
All animals were gently manipulated by experienced facilities' keepers avoiding any environmental or physical stress. Rats subjected to drugs or physiological saline administration received an injection of a 1-mL standard volume of solution with a 23-gauge stainless steel needle of 31 mm length (for […]) or 21 mm length (for SC injections). The animals were randomly assigned to any treatment group and were used only once in the behavioural experiments.
Reserpine-induced changes in open field behaviour was studied according to the method described in Naunyn-Schmiedeberg's Arch. Pharmacol. 293: 109-114 (Vetulani et al., 1976). Reserpine (Sigma, USA) was dissolved in physiological saline and injected daily for 14 days at the dose of 0.1 mg/kg subcutaneously (SC). A period of 1 hour after the last injection of reserpine, animals were subjected to the open field test. This consisted of the measure of ambulation and rearing of the rat in a circular area divided into 17 equal sections and lighted by a centrally suspended lamp. The areas explored by the rat at least with anterior paws was recorded in 5 min test. The episodes of rearing towards the centre or the walls were also recorded in 5 min test.
All data were analysed using univariate random design analysis of variance (one-way ANOVA) and the post hoc Dunnett's test for multiple comparisons. A P-value of 0.05 or less was considered as indicative of a significant difference.

[3] = tested on: rats; assay: Elevated plus maze (X-maze) in rats; settings: 5-min period
Text: The X-maze is constructed from Perspex® and comprises four arms (2 open, 2 closed), each 50 cm long by 9.5 wide and 40 high (closed, arms only) connected by a centre square (9.5×9.5). The open arm has a small lip (3 mm) to assist in the retention of the rat on the arm. The apparatus was housed in a room under subdued lighting conditions.
This model is based on the observation of spontaneous activity of rodents placed in an aversive environment produced by height and often spaces. […] Anxiolytic drugs increase the exploratory activity and the number of entries into the open arms. Rats were allowed at least 1 hour to acclimatise to the environment before testing commenced. Drug treatments were given IP in a pseudo-random, blind design, 40 minutes before behavioural testing, as appropriate. Rats were placed onto the centre square of the X-maze facing a specified open arm, and its behaviour was recorded by remote video over a 5 minute experimental period. The behavioural parameters were subsequently assessed by technicians reviewing the videotape and included: entries into each arm type, time spent on each arm type, rearing, stretch attend postures and head dips.

[4] = tested on: BKW male albino mice; assay: Black and white box test (Example 10); settings: 5-min period; for TB = time in white section: signed value
[5] = tested on: mouse; assay: Black and white box test (Example 14); settings: for Parameter 1: Latency L (initial movement from the white to the black area), Mean / Parameter 2: Time spent in White area (TW), Mean: 5-min recording; for Parameter 3: Transitions/5 min (T), Mean: transitions between the two compartments; for Parameter 4: Total Activity: Atot, Mean: white and black compartments
Method: The characteristic action of anxiolytic agents is to cause a redistribution of exploratory activity and time spent in the white section.
Each mouse was placed into the centre of the white, brightly lit area bacldng the opening between the B/W compartments. Animals behaviour was recorded by a remote video camera for 5 minutes. The recordings were subsequently evaluated on the TV by two operators unaware of drug treatment. The following behavioural parameters were recorded: • a) the latency of the initial movement from the white to the black area: L (sec); • b) the time spent in the white area TW (sec); the time spent in the black area is calculated by the difference: […] (sec); • c) the number of transitions between the two compartments T (No./5 min); • d) the total activity in the white and black compartments, Atot (No./5 min); • e) the total activity in the white area throughout the time spent in the white area: • AtotW/TW (No./sec); • f) the total activity in the black area throughout the time spent in the black area: AtotB/TB (No./sec); • g) the total number of exploratory rearings: Rtot (No./5 min); • h) the total number of line crossings: Ctot (No./5 min); • i) the number of exploratory rearings in the white section RW/TW (No./sec); • j) the number of line crossings in the white section CW/TW (No./sec).
Each group was composed by 8 animals.

[6] = tested on: rats; assay: Escape deficit test (learned helplessness), antidepressant activity; settings: rats treated IP for 15 days, unavoidable stress 16 h and escape test 24 h after last dosing; out of 30 trials; dose not given
Method: The “Escape deficit” test that derives from the classic paradigm of “learned helplessness” was used, as described by Meloni et al. in Pharmacol. Biochem. Behav. 46, 423-6 (1993) and Gambarana et al. in Behav. Pharmacol. 6, 66-73 (1995) and Neuropsychopharmacol. 21, 247-57 (1999). Exposure to an unavoidable stress induces […], which, after 24 hours, makes the rats unable to escape from a nociceptive stimulus. Rats exposed to unavoidable stress make 0-5 escapes out of 30 trials, while naïve rats realise 26-30 escapes. Classical anti-depressives prevent the occurrence of the escape deficit after chronic treatment (15 days).
Rats were treated intra-peritoneally (IP) for 15 days, and then submitted to the unavoidable stress (16 hours after the last dosing) prior to being subjected to the escape test (24 hours after the last dosing).

[7] = IP 40 min before test, dose not given
[8] = 1.25 mg/kg IP 40 min before test
[9] = 0.125 mg/kg IP 40 min before test
[10] = 0.1 mg/kg IP 40 min before test

## CN(C)CCCN1c2ccccc2CCc2ccc(Cl)cc21 [Clomipramine, clomipramine hydrochloride, reference compound]
[1]
  Duration of Immobility: 105.95 ± 9.13
[2]
  No. of Floor Units (ambulation): 84.6 ± 8.1
  Rearing Episodes: 2.4 ± 0.2

## CN1C(=O)CN=C(c2ccccc2)c2cc(Cl)ccc21 [Diazepam]
[3]; [7]
  % time spent in open arms: 25 ± 5%
  No. of entries in open arms: 4 ± 0.6
[4]; [8]
  Atot = Total exploratory activity: +46.7
  CB/TB = crossings in the white compartment/time in white: +0.08
  CN/TN = crossings in the black compartment/time in black: +0.1
  Ctot = total number of crossings: +30.7
  FI = Initial potency: +12.7
  RB/TB = rearings in the white compartment/time in white: +0.06
  RN/TN = rearings in the black compartment/time in black: +0.09
  Rtot = Total number of rearings: +21.2
  TB = time in white section: +33.2
[5]; 1.25 mg/kg
  Parameter 5: Total Activity in white area: AtotW/TW, Mean: .723 No./sec
  Parameter 6: Total Activity in black area: AtotB/TB, Mean: .723 No./sec
  Parameter 7: Rtot (total number of exploratory rearings), Mean: 68.750 No./5 min
  Parameter 8: Ctot (total number of line crossings), Mean: 144.375 No./5 min
  Parameter 9: RW/TW (exploratory rearings in the white section), Mean: .124 No./sec
  Parameter 10: CW/TW (line crossings in the white section), Mean: .599 No./sec
  Parameter 1: Latency L (initial movement from the white to the black area), Mean: 13.750 s
  Parameter 2: Time spent in White area (TW), Mean: 97.750 s
  Parameter 3: Transitions/5 min (T), Mean: 13.375 No./5 min
  Parameter 4: Total Activity: Atot, Mean: 213.125 No./5 min

## ON1CCOCC1c1ccccc1 (centres unmarked) [Example P1, 3-phenylmorpholin-4-ol]
[5]; 0.1 mg/kg
  Parameter 5: Total Activity in white area: AtotW/TW, Mean: .608 No./sec
  Parameter 6: Total Activity in black area: AtotB/TB, Mean: .652 No./sec
  Parameter 7: Rtot (total number of exploratory rearings), Mean: 60.375 No./5 min
  Parameter 8: Ctot (total number of line crossings), Mean: 137.000 No./5 min
  Parameter 9: RW/TW (exploratory rearings in the white section), Mean: .155 No./sec
  Parameter 10: CW/TW (line crossings in the white section), Mean: .454 No./sec
  Parameter 1: Latency L (initial movement from the white to the black area), Mean: 20.125 s
  Parameter 2: Time spent in White area (TW), Mean: 116.750 s
  Parameter 3: Transitions/5 min (T), Mean: 19.500 No./5 min
  Parameter 4: Total Activity: Atot, Mean: 197.375 No./5 min

## ON1CCOCC1Cc1ccccc1 (centres unmarked) [Example P2, 3-benzylmorpholin-4-ol]
[5]; 0.1 mg/kg
  Parameter 5: Total Activity in white area: AtotW/TW, Mean: .519 No./sec
  Parameter 6: Total Activity in black area: AtotB/TB, Mean: .571 No./sec
  Parameter 7: Rtot (total number of exploratory rearings), Mean: 60.250 No./5 min
  Parameter 8: Ctot (total number of line crossings), Mean: 108.375 No./5 min
  Parameter 9: RW/TW (exploratory rearings in the white section), Mean: .099 No./sec
  Parameter 10: CW/TW (line crossings in the white section), Mean: .420 No./sec
  Parameter 1: Latency L (initial movement from the white to the black area), Mean: 19.625 s
  Parameter 2: Time spent in White area (TW), Mean: 59.250 s
  Parameter 3: Transitions/5 min (T), Mean: 10.000 No./5 min
  Parameter 4: Total Activity: Atot, Mean: 168.625 No./5 min

## ON1CCCCC1c1ccccc1 (centres unmarked) [Example P5, 2-phenylpiperidin-1-ol]
[5]; 0.1 mg/kg
  Parameter 5: Total Activity in white area: AtotW/TW, Mean: .571 No./sec
  Parameter 6: Total Activity in black area: AtotB/TB, Mean: .708 No./sec
  Parameter 7: Rtot (total number of exploratory rearings), Mean: 69.500 No./5 min
  Parameter 8: Ctot (total number of line crossings), Mean: 127.500 No./5 min
  Parameter 9: RW/TW (exploratory rearings in the white section), Mean: .123 No./sec
  Parameter 10: CW/TW (line crossings in the white section), Mean: .448 No./sec
  Parameter 1: Latency L (initial movement from the white to the black area), Mean: 20.625 s
  Parameter 2: Time spent in White area (TW), Mean: 105.125 s
  Parameter 3: Transitions/5 min (T), Mean: 14.750 No./5 min
  Parameter 4: Total Activity: Atot, Mean: 197.000 No./5 min

## ON1CCCCC1Cc1ccccc1 (centres unmarked) [Example P6, 2-benzylpiperidin-1-ol]
[5]; 0.1 mg/kg
  Parameter 5: Total Activity in white area: AtotW/TW, Mean: .705 No./sec
  Parameter 6: Total Activity in black area: AtotB/TB, Mean: .835 No./sec
  Parameter 7: Rtot (total number of exploratory rearings), Mean: 75.625 No./5 min
  Parameter 8: Ctot (total number of line crossings), Mean: 153.750 No./5 min
  Parameter 9: RW/TW (exploratory rearings in the white section), Mean: .190 No./sec
  Parameter 10: CW/TW (line crossings in the white section), Mean: .515 No./sec
  Parameter 1: Latency L (initial movement from the white to the black area), Mean: 14.500 s
  Parameter 2: Time spent in White area (TW), Mean: 152.125 s
  Parameter 3: Transitions/5 min (T), Mean: 24.250 No./5 min
  Parameter 4: Total Activity: Atot, Mean: 229.375 No./5 min

## cis-1,2,3,4,5,6a,7,8,9,10a,10b-dodeca-1,4-oxazino-[3′,4′:2,3]benzo[d]isoxazol-4-one [Comparative Compound A]
[6]
  No. of escapes: 3.5 ± 0.9
[3]; [9]
  % time spent in open arms: 21 ± 11%
  No. of entries in open arms: 3 ± 1.1
[4]; [10]
  Atot = Total exploratory activity: +53.7
  CB/TB = crossings in the white compartment/time in white: +0.01
  CN/TN = crossings in the black compartment/time in black: +0.08
  Ctot = total number of crossings: +19.1
  FI = Initial potency: +8.1
  PT = Total passages through the partition: +4.1
  RB/TB = rearings in the white compartment/time in white: +0.04
  RN/TN = rearings in the black compartment/time in black: +0.13
  Rtot = Total number of rearings: +23.9
  TB = time in white section: +52.1
